Test results: patent US20020165233A1, “Quinoxaline containing medicaments for post exposure prophylaxis of an HIV infection” (priority 1999, published 2002)

Assays:
RT-SHIV [1] = experiment: Inhibitory activity on RT-SHIV replication in Herpes Saimiri Virus transformed monkey CD4+ T cells (P27 SIV gag antigen); type: cell-based, chimeric simian-human immunodeficiency virus (SHIV)
Description: The virus used in the experiments is a chimeric simian-human immunodeficiency virus (SHIV) that consists of SIVmac239 virus genome with replacement of reverse transcriptase gene (RT) by the corresponding HIV-1 RT gene (Ueberla, K. et al (1995), Medical Sciences 92, […]). RT-SHIV induced AIDS in experimentally infected rhesus monkeys (Ueberla, loc.cit.). Proviral RT-SHIV DNA was prepared by ligation of RT-SHIV5′ and 3′ half of SIVmac239. COS-1 virus stocks were prepared by DNA transfection of proviral DNA. Virus stocks for efficacy experiments were prepared by propagation of COS-1 virus stock in rhesus monkey peripheral blood lymphocytes (PBL). P27 antigen concentration of the virus stocks was determined with a commercial SIV gag antigen ELISA kit (Coulter). The 50% T cell infective dose (TCID50) of the stocks was determined with Herpes Simiri Virus transformed cynomolgus CD4^+ T cells (cyT/HSV).
Inhibitory Activity of COMPOUND A on RT-SHIV Replication in Herpes Saimiri Virus Transformed Monkey CD4^+ T Cells:
3×10^6 of CyT/HSV cells were infected with RT-SHIV stocks containing 10000 TCID50 for 2 h at 37° C., then washed and resuspended in the medium containing serially diluted COMPOUND A (0, 0.1, 0.3, 1, 3, 10, 30, 100, 300, 1000 nM). […] Virus growth was monitored by measuring of P27 SIV gag antigen in culture supernatant with a commercial kit.

RT-SHIV [2] = experiment: Quantitative virus isolation (QVI) from PBMC co-cultured with C8166 and viral RNA PCR of culture supernatant; type: in vivo, rhesus monkeys; set-up: key to viral RNA PCR of QVI culture supernatant: +=positive; −=negative
Description: Nine rhesus monkeys (male, 2 years old, 2-3 kg) were seronegative for SIV, Simian T cell Leukemia Virus (STLV), B virus and Type D retroviruses. 15 mg/kg body weight of COMPOUND A was subcutaneously administered into animals twice a day (12 h interval) for 28 d. Animals were divided into three groups. All animals were intravenously administered with 100 TCID50 of RT-SHIV The first group consisted of three animals treated with COMPOUND A from 8 h post exposure for 28 d. The second group of animals was treated with COMPOUND A from 24 h post exposure for 28 d. The third group (control) received the solvent that was used to dissolve COMPOUND A (PEG400:glycerol:water=[…]) from 8 h post exposure for 28 d.
Blood was collected from all the animals either just before or 2 h after the drug administration on 0, 3, 7, 10, 14, 21, 29 d post exposure in order to check the drug concentration, otherwise in intervals of 2 to 8 weeks. Biopsy of inguinal lymph nodes was conducted on 17 d or 18 d and 8 weeks post exposure in two animals per group. Cerebrospinal fluid (CSF) was collected from the animals just before biopsy.
Viral RNA was detected from 7 or 10 d post exposure up to 40 weeks post exposure in all plasma specimen from two animals (FIG. 2). […] While in two animals plasma viral RNA levels persisted around 10^5 copy/ml after a moderate reduction occurred at 4 weeks post exposure, viral RNA levels in one animal declined to about 10^3 copy/ml after 15 weeks post exposure (FIG. 2). The RT-SHIV infection in PIBMC was monitored by quantitative virus isolation (QVI) and quantitative PCR assay of proviral DNA. Serially diluted PBMC were co-cultured with C8166 to determine the minimal PBMC cell number to provoke a productive infection of C8166 cells. The number from the QVI test indicates infectious cells per one million PBMC. QVI results were consistent with plasma viral RNA levels. The numbers indicates the results of QVI. A + or − on the right indicates results of viral RNA PCR assay for the detection of virus in culture supernatant. +=positive, −=negative.

RT-SHIV [3] = experiment: Cytotoxic lymphocytes (CTL) assay against env and gag-pol; type: in vivo, rhesus monkeys; settings: treated animals; all time points tested (3 w to 40 w post exposure)
[4] = animal #1, 15 mg/kg s.c. b.i.d. 8h thru 28 d post exp, week 6 post exp.
[5] = animal #1, 15 mg/kg s.c. b.i.d. 8h thru 28 d post exp, week 8 post exp.
[6] = animal #1, 15 mg/kg s.c. b.i.d. 8h thru 28 d post exp, week 11 post exp.
[7] = animal #3, 15 mg/kg s.c. b.i.d. 24h thru 28 d post exp., week 6 post exp.
[8] = animal #3, 15 mg/kg s.c. b.i.d. 24h thru 28 d post exp., week 8 post exp.
[9] = animal #3, 15 mg/kg s.c. b.i.d. 24h thru 28 d post exp., week 11 post exp.
[10] = animal #4, 15 mg/kg s.c. b.i.d. 24h thru 28 d post exp., week 8 post exp.
[11] = animal #10, 15 mg/kg s.c. b.i.d. 8h thru 28 d post exp, week 6 post exp.
[12] = animal #10, 15 mg/kg s.c. b.i.d. 8h thru 28 d post exp, week 8 post exp.
[13] = animal #10, 15 mg/kg s.c. b.i.d. 8h thru 28 d post exp, week 11 post exp.
[14] = animal #11, 15 mg/kg s.c. b.i.d. 24h thru 28 d post exp., week 8 post exp.
[15] = animal #11, 15 mg/kg s.c. b.i.d. 24h thru 28 d post exp., week 11 post exp.

CC[C@H]1C(=O)Nc2ccc(F)cc2N1C(=O)OC(C)C [Compound A, (3S)-ethyl-6-fluoro-4-isopropyloxycarbonyl-3,4-dihydroquinoxalin-2(1H)-one]
suppression of RT-SHIV replication (RT-SHIV [1]; 10 nM COMPOUND A, Herpes Saimiri Virus transformed monkey CD4+ cells): more than 95%
IC90 (RT-SHIV [1]; Simian-Human immunodeficiency virus, CD4+ T, in Primates, read-out: IC90 value (RT-SHIV replication)): 8 nM
viral RNA PCR of QVI culture supernatant (RT-SHIV [2]; animal #1, 15 mg/kg s.c. b.i.d. 8h thru 28 d post exp, week 2 post exp.): −/−
Quantitative virus isolation (QVI) (RT-SHIV [2]; [4]): 4 infectious cells per one million PBMC
viral RNA PCR of QVI culture supernatant (RT-SHIV [2]; [4]): +
Quantitative virus isolation (QVI) (RT-SHIV [2]; [5]): 16 infectious cells per one million PBMC
viral RNA PCR of QVI culture supernatant (RT-SHIV [2]; [5]): +
Quantitative virus isolation (QVI) (RT-SHIV [2]; [6]): 4 infectious cells per one million PBMC
viral RNA PCR of QVI culture supernatant (RT-SHIV [2]; [6]): +
viral RNA PCR of QVI culture supernatant (RT-SHIV [2]; animal #1, 15 mg/kg s.c. b.i.d. 8h thru 28 d post exp, week 15 post exp.): −/−
viral RNA PCR of QVI culture supernatant (RT-SHIV [2]; animal #3, 15 mg/kg s.c. b.i.d. 24h thru 28 d post exp., week 2 post exp.): −/−
Quantitative virus isolation (QVI) (RT-SHIV [2]; [7]): 16 infectious cells per one million PBMC
viral RNA PCR of QVI culture supernatant (RT-SHIV [2]; [7]): +
Quantitative virus isolation (QVI) (RT-SHIV [2]; [8]): 16 infectious cells per one million PBMC
viral RNA PCR of QVI culture supernatant (RT-SHIV [2]; [8]): +
Quantitative virus isolation (QVI) (RT-SHIV [2]; [9]): 16 infectious cells per one million PBMC
viral RNA PCR of QVI culture supernatant (RT-SHIV [2]; [9]): +
viral RNA PCR of QVI culture supernatant (RT-SHIV [2]; animal #3, 15 mg/kg s.c. b.i.d. 24h thru 28 d post exp., week 15 post exp.): −/−
viral RNA PCR of QVI culture supernatant (RT-SHIV [2]; animal #4, 15 mg/kg s.c. b.i.d. 24h thru 28 d post exp., week 2 post exp.): −/−
viral RNA PCR of QVI culture supernatant (RT-SHIV [2]; animal #4, 15 mg/kg s.c. b.i.d. 24h thru 28 d post exp., week 6 post exp.): −/−
Quantitative virus isolation (QVI) (RT-SHIV [2]; [10]): 1 infectious cells per one million PBMC
viral RNA PCR of QVI culture supernatant (RT-SHIV [2]; [10]): +
viral RNA PCR of QVI culture supernatant (RT-SHIV [2]; animal #4, 15 mg/kg s.c. b.i.d. 24h thru 28 d post exp., week 11 post exp.): −/−
viral RNA PCR of QVI culture supernatant (RT-SHIV [2]; animal #4, 15 mg/kg s.c. b.i.d. 24h thru 28 d post exp., week 15 post exp.): −/−
viral RNA PCR of QVI culture supernatant (RT-SHIV [2]; animal #5, 15 mg/kg s.c. b.i.d. 8h thru 28 d post exp, week 2 post exp.): −/−
viral RNA PCR of QVI culture supernatant (RT-SHIV [2]; animal #5, 15 mg/kg s.c. b.i.d. 8h thru 28 d post exp, week 6 post exp.): −/−
viral RNA PCR of QVI culture supernatant (RT-SHIV [2]; animal #5, 15 mg/kg s.c. b.i.d. 8h thru 28 d post exp, week 8 post exp.): −/−
viral RNA PCR of QVI culture supernatant (RT-SHIV [2]; animal #5, 15 mg/kg s.c. b.i.d. 8h thru 28 d post exp, week 11 post exp.): −/−
viral RNA PCR of QVI culture supernatant (RT-SHIV [2]; animal #5, 15 mg/kg s.c. b.i.d. 8h thru 28 d post exp, week 15 post exp.): −/−
viral RNA PCR of QVI culture supernatant (RT-SHIV [2]; animal #10, 15 mg/kg s.c. b.i.d. 8h thru 28 d post exp, week 2 post exp.): −/−
Quantitative virus isolation (QVI) (RT-SHIV [2]; [11]): 1 infectious cells per one million PBMC
viral RNA PCR of QVI culture supernatant (RT-SHIV [2]; [11]): +
Quantitative virus isolation (QVI) (RT-SHIV [2]; [12]): 16 infectious cells per one million PBMC
viral RNA PCR of QVI culture supernatant (RT-SHIV [2]; [12]): +
Quantitative virus isolation (QVI) (RT-SHIV [2]; [13]): 4 infectious cells per one million PBMC
viral RNA PCR of QVI culture supernatant (RT-SHIV [2]; [13]): +
viral RNA PCR of QVI culture supernatant (RT-SHIV [2]; animal #10, 15 mg/kg s.c. b.i.d. 8h thru 28 d post exp, week 15 post exp.): −/−
viral RNA PCR of QVI culture supernatant (RT-SHIV [2]; animal #11, 15 mg/kg s.c. b.i.d. 24h thru 28 d post exp., week 2 post exp.): −/−
viral RNA PCR of QVI culture supernatant (RT-SHIV [2]; animal #11, 15 mg/kg s.c. b.i.d. 24h thru 28 d post exp., week 6 post exp.): −/−
Quantitative virus isolation (QVI) (RT-SHIV [2]; [14]): 4 infectious cells per one million PBMC
viral RNA PCR of QVI culture supernatant (RT-SHIV [2]; [14]): +
Quantitative virus isolation (QVI) (RT-SHIV [2]; [15]): 4 infectious cells per one million PBMC
viral RNA PCR of QVI culture supernatant (RT-SHIV [2]; [15]): +
viral RNA PCR of QVI culture supernatant (RT-SHIV [2]; animal #11, 15 mg/kg s.c. b.i.d. 24h thru 28 d post exp., week 15 post exp.): −/−
CTL activity against env and gag-pol (RT-SHIV [3]): constant high CTL activity
